Assay results reported in ChEMBL document CHEMBL1697681, “Predicting phospholipidosis using machine learning” (Mol Pharm, 2010).

These molecules were tested on Phospholipidosis (assay: Literature-mined public compounds from Lowe et al phospholipidosis modelling dataset).

Compound	Phospholipidosis
CNS(=O)(=O)Cc1ccc2[nH]cc(CCN(C)C)c2c1	Negative
CN(C)CCN(Cc1cccs1)c1ccccn1	Negative
CN1CCN(Cc2nc3cccc4c3c([n+]2[O-])-c2ccccc2-4)CC1	Positive
CC1=C(CC(=O)O)c2cc(F)ccc2/C1=C\c1ccc([S+](C)[O-])cc1 (stereo unspecified)	Negative
CN(C)CCC=C1c2ccccc2CCc2c(Cl)cccc21	Positive
OC(CN1CCCCC1)c1ccc(C=C2c3ccccc3-c3ccccc32)cc1 (stereo unspecified)	Positive
CCCC[C@@H]1CC(=O)[C@]2(O)O[C@@H]3[C@@H](NC)[C@@H](O)[C@@H](NC)[C@H](O)[C@H]3O[C@@H]2O1.O=S(=O)(O)O	Positive
CN1CCN(C2=Nc3cc(Cl)ccc3N(C)n3cccc32)CC1	Positive
C=C1C[C@@H]1C[C@H](N)C(=O)O	Negative
CN(C)CCC=C1c2ccccc2C=Cc2c(Cl)cccc21	Positive
CCN(CC)CCn1nc2c3c(c(C)ccc31)Sc1cc(Cl)ccc1-2	Positive
CCN(CC)Cc1cc(Nc2ccnc3cc(Cl)ccc23)ccc1O.Cl	Positive
CC1(C)OCC(C(CS(=O)(=O)c2ccc(Oc3cccc(OC(F)(F)F)c3)cc2)NC=O)O1 (stereo unspecified)	Negative
CC1(C)C(=O)NC(=O)N1CC(COc1ccc(-c2ccc(OC(F)(F)F)cc2)cc1)NC=O (stereo unspecified)	Negative
CC1(C)C(=O)NC(=O)N1CC(N)COc1ccc(-c2ccc(OC(F)(F)F)cc2)cc1 (stereo unspecified)	Positive
CCCN[C@@H]1[C@H](C)[C@@H](O)[C@](C)(O)[C@@H](CC)OC(=O)[C@H](C)[C@@H](O[C@H]2C[C@@](C)(OC)[C@@H](O)[C@H](C)O2)[C@H](C)[C@@H](O[C@@H]2O[C@H](C)C[C@H](N(C)C)[C@H]2O)[C@](C)(O)C[C@H]1C	Positive
CCCNCCc1ccc(NS(=O)(=O)c2ccc(OC(F)(F)F)cc2)cc1	Positive
NC[C@H]1Cc2ccc(F)cc2[C@@H](c2ccccc2)O1	Positive
Clc1ccccc1CNC[C@H]1CC[C@H](CNCc2ccccc2Cl)CC1	Positive
CC1(C)OC[C@H]([C@@H](CS(=O)(=O)c2ccc(Oc3ccc(OC(F)(F)F)cc3)cc2)N(O)C=O)O1	Negative
NCCc1cc(O)c(O)c(O)c1	Positive

Compound	Phospholipidosis
CCC[C@@H](NC(=O)N1C(=O)C(CC)(CC)[C@@H]1Oc1ccc(C(=O)N2CCN(C)CC2)cc1)c1ccc2c(c1)OCO2	Positive
CC1(C)NC(=O)N(C[C@@H](COc2ccc(-c3ccc(OC(F)(F)F)cc3)cc2)N(O)C=O)C1=O	Negative
C[n+]1ccc(-c2cc[n+](C)cc2)cc1	Positive
S=C=Nc1cccc2ccccc12 [1-NAPHTHYLISOTHIOCYANATE]	Negative
Cc1ccc2cc3c(ccc4ccccc43)c3c2c1CC3 [3-METHYLCHOLANTHRENE]	Negative
Nc1nc(NC2CC2)c2ncn([C@H]3C=C[C@@H](CO)C3)c2n1 [ABACAVIR]	Negative
CC(=O)Nc1ccc(O)cc1 [ACETAMINOPHEN]	Negative
Oc1ncnc2[nH]ncc12 [ALLOPURINOL]	Positive
NC12CC3CC(CC(C3)C1)C2 [AMANTADINE]	Positive
Nc1c(Br)cc(Br)cc1CN[C@H]1CC[C@H](O)CC1 [AMBROXOL]	Positive
NCC[C@H](O)C(=O)N[C@@H]1C[C@H](N)[C@@H](O[C@H]2O[C@H](CN)[C@@H](O)[C@H](O)[C@H]2O)[C@H](O)[C@H]1O[C@H]1O[C@H](CO)[C@@H](O)[C@H](N)[C@H]1O [AMIKACIN]	Positive
O=C(O)CCCCCCNC1c2ccccc2CCc2ccccc21 [AMINEPTINE]	Negative
CCCCc1oc2ccccc2c1C(=O)c1cc(I)c(OCCN(CC)CC)c(I)c1 [AMIODARONE]	Positive
CN(C)CCC=C1c2ccccc2CCc2ccccc21 [AMITRIPTYLINE]	Positive
CC(=O)Oc1ccccc1C(=O)O [ASPIRIN]	Negative
CN1[C@@H]2CC[C@H]1C[C@@H](OC(=O)C(CO)c1ccccc1)C2 (stereo partly specified) [ATROPINE]	Positive
Cl.Cl.O=C(CCN1CCN2CCCC2C1)N1c2ccccc2Sc2ccc(Cl)cc21 (stereo unspecified) [AZACLORZINE HYDROCHLORIDE]	Negative
CN(C)CCCN(C)[C@H]1CC[C@H]2[C@@H]3CC=C4C[C@@H](O)CC[C@]4(C)[C@H]3CC[C@]12C [AZACOSTEROL]	Positive
[N-]=[N+]=CC(=O)OC[C@H](N)C(=O)O [AZASERINE]	Negative
CN1CCN(CCCCN2C(=O)CN(/N=C/c3ccc(-c4ccc(Cl)cc4)o3)C2=O)CC1.Cl.Cl [AZIMILIDE DIHYDROCHLORIDE]	Positive
CC[C@H]1OC(=O)[C@H](C)[C@@H](O[C@H]2C[C@@](C)(OC)[C@@H](O)[C@H](C)O2)[C@H](C)[C@@H](O[C@@H]2O[C@H](C)C[C@H](N(C)C)[C@H]2O)[C@](C)(O)C[C@@H](C)CN(C)[C@H](C)[C@@H](O)[C@]1(C)O [AZITHROMYCIN]	Positive

Compound	Phospholipidosis
NC(=O)c1ccccc1 [BENZAMIDE]	Positive
CC(O)(CS(=O)(=O)c1ccc(F)cc1)C(=O)Nc1ccc(C#N)c(C(F)(F)F)c1 (stereo unspecified) [BICALUTAMIDE]	Negative
C=CC1=C(C)/C(=C/c2[nH]c(Cc3[nH]c(/C=C4\NC(=O)C(C)=C4C=C)c(C)c3CCC(=O)O)c(CCC(=O)O)c2C)NC1=O [BILIRUBIN]	Positive
FC(F)(F)c1ccc(-c2ccc(OCCN3CCCC3)cc2)cc1 [BOXIDINE]	Positive
CN(Cc1cc(Br)cc(Br)c1N)C1CCCCC1 [BROMHEXINE]	Positive
CC(NC(C)(C)C)C(=O)c1cccc(Cl)c1 (stereo unspecified) [BUPROPION]	Negative
O=C1CC2(CCCC2)CC(=O)N1CCCCN1CCN(c2ncccn2)CC1 [BUSPIRONE]	Negative
Cn1c(=O)c2c(ncn2C)n(C)c1=O [CAFFEINE]	Negative
NC(=O)N1c2ccccc2C=Cc2ccccc21 [CARBAMAZEPINE]	Negative
ClC(Cl)(Cl)Cl [CARBON TETRACHLORIDE]	Negative
CC(C)(O/N=C(\C(=O)N[C@@H]1C(=O)N2C(C(=O)[O-])=C(C[n+]3ccccc3)CS[C@H]12)c1csc(N)n1)C(=O)O [CEFTAZIDIME]	Negative
O=C(N[C@H](CO)[C@H](O)c1ccc([N+](=O)[O-])cc1)C(Cl)Cl [CHLORAMPHENICOL]	Positive
CN1CCN(C(c2ccccc2)c2ccc(Cl)cc2)CC1 (stereo unspecified) [CHLORCYCLIZINE]	Positive
ClC(Cl)Cl [CHLOROFORM]	Negative
CC(CCCN(CCCl)CCCl)Nc1ccnc2cc(Cl)ccc12 (stereo unspecified) [CHLOROQUINE MUSTARD]	Positive
CCN(CC)CCCC(C)Nc1ccnc2cc(Cl)ccc12 (stereo unspecified) [CHLOROQUINE]	Positive
CC(C)(N)Cc1ccc(Cl)cc1 [CHLORPHENTERMINE]	Positive
CN(C)CCCN1c2ccccc2Sc2ccc(Cl)cc21 [CHLORPROMAZINE]	Positive
CN(C)[C@@H]1C(O)=C(C(N)=O)C(=O)[C@@]2(O)C(O)=C3C(=O)c4c(O)ccc(Cl)c4[C@@](C)(O)[C@H]3C[C@@H]12 [CHLORTETRACYCLINE]	Negative
CN/C(=N/CCSCc1nc[nH]c1C)NC#N [CIMETIDINE]	Negative
CC(C)(Oc1ccc(C2CC2(Cl)Cl)cc1)C(=O)O (stereo unspecified) [CIPROFIBRATE]	Negative

Compound	Phospholipidosis
CN(C)CCCC1(c2ccc(F)cc2)OCc2cc(C#N)ccc21 (stereo unspecified) [CITALOPRAM]	Positive
CC[C@H]1OC(=O)[C@H](C)[C@@H](O[C@H]2C[C@@](C)(OC)[C@@H](O)[C@H](C)O2)[C@H](C)[C@@H](O[C@@H]2O[C@H](C)C[C@H](N(C)C)[C@H]2O)[C@](C)(OC)C[C@@H](C)C(=O)[C@H](C)[C@@H](O)[C@]1(C)O [CLARITHROMYCIN]	Negative
CCC[C@@H]1C[C@@H](C(=O)N[C@@H]([C@H]2O[C@H](SC)[C@H](O)[C@@H](O)[C@H]2O)[C@H](C)Cl)N(C)C1 [CLINDAMYCIN]	Positive
CC1(C)N=C(N)N=C(N)N1OCc1ccc(Cl)c(Cl)c1 [CLOCIGUANIL]	Positive
CCOC(=O)C(C)(C)Oc1ccc(Cl)cc1 [CLOFIBRATE]	Negative
CCOC(=O)NC(C)(C)Cc1ccc(Cl)cc1 [CLOFOREX]	Negative
N#Cc1ccc(NC(=O)N=C(N)N)cc1Cl [CLOGUANAMIL]	Positive
CN(C)CCCC1c2ccccc2Nc2ccc(Cl)cc21 (stereo unspecified) [CLOMACRAN]	Positive
CN(C)CCCN1c2ccccc2CCc2ccc(Cl)cc21 [CLOMIPRAMINE]	Positive
CN1CCN(C2=Nc3cc(Cl)ccc3Nc3ccccc32)CC1 [CLOZAPINE]	Positive
COc1cc2c(c(OC)c1OC)-c1ccc(OC)c(=O)cc1[C@@H](NC(C)=O)CC2 [COLCHICINE]	Negative
CCC(c1ccc(OCCN(CC)CC)cc1)C(CC)c1ccc(OCCN(CC)CC)cc1 (stereo unspecified) [CORALGIL]	Positive
CN1CCN(C(c2ccccc2)c2ccccc2)CC1 [CYCLIZINE]	Positive
CC(=O)O[C@]1(C(C)=O)CC[C@H]2[C@@H]3C=C(Cl)C4=CC(=O)[C@@H]5C[C@@H]5[C@]4(C)[C@H]3CC[C@@]21C [CYPROTERONE ACETATE]	Negative
O=C1CN(/N=C/c2ccc(-c3ccc([N+](=O)[O-])cc3)o2)C(O)=N1 [DANTROLENE]	Negative
CC(=O)N(O)CCCCCNC(=O)CCC(=O)N(O)CCCCCNC(=O)CCC(=O)N(O)CCCCCN [DEFEROXAMINE]	Negative
CN(C)[C@@H]1C(O)=C(C(N)=O)C(=O)[C@@]2(O)C(O)=C3C(=O)c4c(O)ccc(Cl)c4[C@@H](O)[C@H]3C[C@@H]12 [DEMECLOCYCLINE]	Negative
CNCCCN1c2ccccc2CCc2ccccc21 [DESIPRAMINE]	Positive
